Holding throughout (format): cell-based
The test system of one experiment is MCF7 cells. As to the kind of experiment: Anti-proliferation (viability) of MCF7 cells (Table 7, FIG. 2B). The conditions noted are these: Homo sapiens, MCF7, MCF7 cells, 3-6 days, 10-point serial dilution; read-out: GI IC50 in MCF-7.
In the next experiment the test system is Calu-1 cells. As to the kind of experiment: Anti-proliferation (viability) of NSCLC Calu-1 cells, 3 days (Table 7, FIG. 2B). The conditions noted are these: Homo sapiens, 72 h; Calu-1 cells, 3 days, 10-point serial dilution; read-out: GI IC50 in Calu-1. In outline: (§1)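 Viability after a 10-point dilution series of heterobifunctional compounds, with exposure of 6 days for ER+ breast T47D cells and 3 days for NSCLC Calu-1 cells.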

The subject of the next experiment is T47D cells. As to the kind of experiment: Anti-proliferation (viability) of ER+ breast cancer T47D cells, 6 days (Table 7, FIG. 2B). The settings on record: Homo sapiens, 144 h; T47D cells, 6 days, 10-point serial dilution; read-out: GI IC50 in T47D. In outline:
as §1

The next experiment deals with CDK4 (Homo sapiens, UniProt P11802+Q16531). The experiment can be described thus: CDK4 percentage degradation in Calu-1 cells (Table 6). On the set-up: Cells that express cyclin D1-3 and CDK4/6 proteins were treated with heterobifunctional compounds; endogenous in cells; host or cells: Calu-1. The conditions noted are these: 16 hours; for inhibition at 0.04 µM: 40 nM; for inhibition at 0.2 µM: 200 nM. Summed up: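 Percentage degradation of Cyclin D1 and CDK4 derived from densitometry of ECL Western blots on lysates of Calu-1 cells. Treatment was 16 h with compound at either 40 nM or 200 nM.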

pIC50: −log10 of the molar value.

Chain of CDK4 (P11802 2-303 limits assumed): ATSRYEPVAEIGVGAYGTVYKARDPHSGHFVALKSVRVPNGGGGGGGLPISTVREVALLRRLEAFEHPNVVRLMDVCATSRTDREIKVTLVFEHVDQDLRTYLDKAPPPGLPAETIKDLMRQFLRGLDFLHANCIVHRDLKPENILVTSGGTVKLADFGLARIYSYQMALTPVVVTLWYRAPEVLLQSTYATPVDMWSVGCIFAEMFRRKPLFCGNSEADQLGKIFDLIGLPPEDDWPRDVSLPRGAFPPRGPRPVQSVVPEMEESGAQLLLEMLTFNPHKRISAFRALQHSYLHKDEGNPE
Chain of CDK4 (P24385 whole entry partner): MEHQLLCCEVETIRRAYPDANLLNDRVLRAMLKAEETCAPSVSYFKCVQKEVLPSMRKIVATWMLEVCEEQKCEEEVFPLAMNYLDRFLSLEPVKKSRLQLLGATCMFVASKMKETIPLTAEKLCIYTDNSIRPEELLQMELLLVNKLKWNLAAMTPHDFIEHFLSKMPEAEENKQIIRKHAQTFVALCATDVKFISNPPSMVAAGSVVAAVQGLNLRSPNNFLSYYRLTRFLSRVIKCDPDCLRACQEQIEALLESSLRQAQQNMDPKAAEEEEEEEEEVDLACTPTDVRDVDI
Chain of CDK4 (Q16531 2-1140 limits assumed): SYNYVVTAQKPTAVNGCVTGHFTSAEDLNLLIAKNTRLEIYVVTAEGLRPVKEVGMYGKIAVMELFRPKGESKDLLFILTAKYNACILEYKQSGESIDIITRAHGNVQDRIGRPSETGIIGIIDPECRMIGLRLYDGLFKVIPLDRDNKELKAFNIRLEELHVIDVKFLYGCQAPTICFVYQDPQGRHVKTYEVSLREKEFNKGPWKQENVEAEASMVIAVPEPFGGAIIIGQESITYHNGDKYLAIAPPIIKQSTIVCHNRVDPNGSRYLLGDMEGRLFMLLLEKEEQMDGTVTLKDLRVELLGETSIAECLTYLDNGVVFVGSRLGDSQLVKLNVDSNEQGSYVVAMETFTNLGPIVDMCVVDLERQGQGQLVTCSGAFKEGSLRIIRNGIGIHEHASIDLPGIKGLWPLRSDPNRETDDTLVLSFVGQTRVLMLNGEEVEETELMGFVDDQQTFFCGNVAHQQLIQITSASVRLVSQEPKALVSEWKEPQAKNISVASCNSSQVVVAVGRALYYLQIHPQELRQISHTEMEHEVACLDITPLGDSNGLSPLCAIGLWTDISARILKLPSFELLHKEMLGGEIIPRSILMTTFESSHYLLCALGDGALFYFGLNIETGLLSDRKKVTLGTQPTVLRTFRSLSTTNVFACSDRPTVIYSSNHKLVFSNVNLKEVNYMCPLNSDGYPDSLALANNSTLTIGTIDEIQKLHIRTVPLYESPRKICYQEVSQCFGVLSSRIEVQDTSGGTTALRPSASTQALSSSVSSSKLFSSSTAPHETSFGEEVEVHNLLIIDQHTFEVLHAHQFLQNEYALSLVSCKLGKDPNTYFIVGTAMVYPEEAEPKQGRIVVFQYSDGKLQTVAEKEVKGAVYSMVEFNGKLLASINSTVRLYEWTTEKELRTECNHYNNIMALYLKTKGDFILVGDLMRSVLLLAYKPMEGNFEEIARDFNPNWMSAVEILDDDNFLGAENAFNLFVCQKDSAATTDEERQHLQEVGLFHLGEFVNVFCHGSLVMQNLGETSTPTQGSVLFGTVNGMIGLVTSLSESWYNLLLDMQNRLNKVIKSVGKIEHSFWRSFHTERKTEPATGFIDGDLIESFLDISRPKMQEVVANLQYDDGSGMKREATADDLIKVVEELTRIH

Turning to `CNc1ccc(C(=O)Nc2cccc(C3CC3)n2)c(NC2CC3(C2)CN(C(=O)CCN2CCN(c4ccc(Nc5ncc6c(C)c(C(C)=O)c(=O)n(C7CCCC7)c6n5)nc4)CC2)C3)n1` [CPD-103, 2-((2-(3-(4-(6-((6-Acetyl-8-cyclopentyl-5-methyl-7-oxo-7,8-dihydropyrido[2,3-d]pyrimidin-2-yl)amino)pyridin-3-yl)piperazin-1-yl)propanoyl)-2-azaspiro[3.3]heptan-6-yl)amino)-N-(6-cyclopropylpyridin-2-yl)-6-(methylamino)nicotinamide], the pIC50 in the experiment with MCF7 cells was less than 7.00; in the experiment on Calu-1 cells it was not below 8.00; in the experiment with T47D cells it was 7.00 to 7.30. Further, the inhibition at 0.04 µM against CDK4 was more than 80%. At CDK4, this compound yielded an inhibition at 0.2 µM of more than 80%.
For `CNc1ccc(C(=O)Nc2ccc(N(C)C)nn2)c(NC2CC3(C2)CN(C(=O)C2(CN4CCN(c5ccc(Nc6ncc7c(C)c(C(C)=O)c(=O)n(C8CCCC8)c7n6)nc5)CC4)CC2)C3)n1` [CPD-115, 2-((2-(1-((4-(6-((6-Acetyl-8-cyclopentyl-5-methyl-7-oxo-7,8-dihydropyrido[2,3-d]pyrimidin-2-yl)amino)pyridin-3-yl)piperazin-1-yl)methyl)cyclopropane-1-carbonyl)-2-azaspiro[3.3]heptan-6-yl)amino)-N-(6-(dimethylamino)pyridazin-3-yl)-6-(methylamino)nicotinamide], the pIC50 in the experiment on MCF7 cells was less than 7.00; with Calu-1 cells, not below 8.00; in the experiment with T47D cells it was not below 7.30. The compound further returned an inhibition at 0.04 µM on CDK4 of 50 to 80%. At CDK4, this compound returned an inhibition at 0.2 µM of 50 to 80%.
For `CNc1ccc(C(=O)Nc2cc(C)n(C)n2)c(NC2CC3(C2)CN(C(=O)CCN2CCN(c4ccc(Nc5ncc6c(C)c(C(C)=O)c(=O)n(C7CCCC7)c6n5)nc4)CC2)C3)n1` [CPD-129, 2-((2-(3-(4-(6-((6-Acetyl-8-cyclopentyl-5-methyl-7-oxo-7,8-dihydropyrido[2,3-d]pyrimidin-2-yl)amino)pyridin-3-yl)piperazin-1-yl)propanoyl)-2-azaspiro[3.3]heptan-6-yl)amino)-N-(1,5-dimethyl-1H-pyrazol-3-yl)-6-(methylamino)nicotinamide], the pIC50 in the experiment on MCF7 cells is less than 7.00; in the experiment with Calu-1 cells, not below 8.00; in the experiment with T47D cells, 7.00 to 7.30. Also, the inhibition at 0.04 µM on CDK4 lay in the range of 50 to 80%. This compound also came in with an inhibition at 0.2 µM at CDK4 of 50 to 80%.
For `CNc1ccc(C(=O)Nc2cn(C)c(C3CC3)n2)c(NC2CC3(CC(NC(=O)CN4CCN(c5ccc(Nc6ncc7c(C)c(C(C)=O)c(=O)n(C8CCCC8)c7n6)nc5)CC4)C3)C2)n1` (stereo not drawn) [CPD-135, 2-((6-(2-(4-(6-((6-Acetyl-8-cyclopentyl-5-methyl-7-oxo-7,8-dihydropyrido[2,3-d]pyrimidin-2-yl)amino)pyridin-3-yl)piperazin-1-yl)acetamido)spiro[3.3]heptan-2-yl)amino)-N-(2-cyclopropyl-1-methyl-1H-imidazol-4-yl)-6-(methylamino)nicotinamide], the pIC50 was more than 7.30 in the experiment with MCF7 cells, 7.30 to 8.00 with Calu-1 cells and not above 7.00 in the experiment with T47D cells. Further, the inhibition at 0.04 µM against CDK4 was in the range of 30 to 50%. In addition, the inhibition at 0.2 µM at CDK4 lay within 50 to 80%.
As for `CNc1ccc(C(=O)Nc2ccc(N(C)C)nn2)c(NC2CCC(CCNC(=O)CN3CCN(c4ccc(Nc5ncc6c(C)c(C(C)=O)c(=O)n(C7CCCC7)c6n5)nc4)CC3)C2)n1` (stereo not drawn) [CPD-136, 2-((3-(2-(2-(4-(6-((6-Acetyl-8-cyclopentyl-5-methyl-7-oxo-7,8-dihydropyrido[2,3-d]pyrimidin-2-yl)amino)pyridin-3-yl)piperazin-1-yl)acetamido)ethyl)cyclopentyl)amino)-N-(6-(dimethylamino)pyridazin-3-yl)-6-(methylamino)nicotinamide], the pIC50 with MCF7 cells was less than 7.00; in the experiment with Calu-1 cells, not below 8.00; in the experiment with T47D cells it was 7.00 to 7.30. The inhibition at 0.04 µM on CDK4 lay within 50 to 80%. Besides, the inhibition at 0.2 µM on CDK4 was in the range of 50 to 80%.
Regarding `CNc1ccc(C(=O)Nc2cccc(C)n2)c(NC2CC3(C2)CN(C(=O)CCN2CCN(c4ccc(Nc5ncc6c(C)c(C(C)=O)c(=O)n(C7CCCC7)c6n5)nc4)CC2)C3)n1` [CPD-155, 2-((2-(3-(4-(6-((6-acetyl-8-cyclopentyl-5-methyl-7-oxo-7,8-dihydropyrido[2,3-d]pyrimidin-2-yl)amino)pyridin-3-yl)piperazin-1-yl)propanoyl)-2-azaspiro[3.3]heptan-6-yl)amino)-6-(methylamino)-N-(6-methylpyridin-2-yl)nicotinamide], the values for the pIC50 in the experiment with MCF7 cells, with Calu-1 cells and with T47D cells were less than 7.00, not below 8.00 and 7.00 to 7.30, respectively. At CDK4, this compound showed an inhibition at 0.04 µM of 50 to 80%. Moreover, the inhibition at 0.2 µM on CDK4 is more than 80%.

One may read the pIC50 as −log10 of the IC50, conventionally taken in molar units. The inhibition is the relative decrease from the control value, in per cent. Read a high inhibition as strong suppression.
